Measurements reported in US12390447B2, “Sirtuin 6 protein deacylase (SIRT6) activators” (Wisconsin Alumni Research Foundation, priority 2019, dated 2025).

Columns and labels:
Type in all cases: biochemical
SIRT6 K160A = SIRT6 K160A (Homo sapiens, UniProt Q8N6T7, K160A); experiment: Steady-state deacetylation rate of SIRT6 K160A with or without CL5D; details: SIRT6 K160A 1 μM, H3K9ac 40 μM, CL5D 50 μM, 25 minutes
Description: (§1) All sirtuin deacylation assays were carried out at 37° C. in 20 mM potassium phosphate pH 7.5 with 0.5 mM NAD^+, 10% DMSO, and 20 μM H3K9ac or H3K9myr peptides, unless otherwise noted in legend, and quenched by the addition of 2% TFA final. Steady-state reactions were constrained to less than 20% substrate turnover to prevent product inhibition. A variety of times were required to monitor SIRT6 deacetylation (2-60 minutes) under this restraint given the ability to strongly activate catalysis. In these cases, specific activities were determined and either reported as is or as fold-activation of specific activity. Deacylation reactions were analyzed by reversed phase high-performance liquid chromatography on a Kinetex C18 column (100 Å, 100×4.6 mm, 2.6 μm, Phenomenex) by monitoring the formation of the deacylated product at 214 nm. Deacetylation reactions were analyzed using a gradient of 33-100% B (30% acetonitrile with 0.05% TFA) in 8 min at 1.6 mL min^−1. Demyristoylation reactions were analyzed using a gradient of 3 to 100% B (acetonitrile with 0.05% TFA) in 10 min at 1.6 mL min^−1. The product and substrate peaks were quantified and ratio of these allowed for quantification of product formation. Three independent experiments were performed for each condition with averages being plotted and error bars representing the standard deviation of these replicates. […]

SIRT6 R65A = SIRT6 R65A (Homo sapiens, UniProt Q8N6T7, R65A); experiment: Steady-state deacetylation rate of SIRT6 R65A with or without CL5D; details: CL5D 50 μM
Sequence of SIRT6 R65A (Q8N6T7 whole entry R65A): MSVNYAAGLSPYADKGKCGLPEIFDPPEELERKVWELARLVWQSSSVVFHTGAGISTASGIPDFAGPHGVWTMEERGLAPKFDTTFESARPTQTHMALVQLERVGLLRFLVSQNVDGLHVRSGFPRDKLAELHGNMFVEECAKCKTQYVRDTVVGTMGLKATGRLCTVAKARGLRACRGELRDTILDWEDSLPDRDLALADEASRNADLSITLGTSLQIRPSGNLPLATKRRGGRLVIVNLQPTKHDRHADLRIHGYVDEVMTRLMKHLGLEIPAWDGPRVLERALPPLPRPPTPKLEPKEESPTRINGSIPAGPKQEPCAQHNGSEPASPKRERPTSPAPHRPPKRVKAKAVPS
Description: as §1

SIRT6 [1] = target: T1, SIRT6 (Homo sapiens, UniProt Q8N6T7); experiment: Histone deacetylation assay with acid extracted histones, H3K9ac immunoblot; details: 50 μM compound; histones 75 μg/mL from SAHA-treated HEK293T cells; SIRT6 1 μM
T1 sequence (Q8N6T7 whole entry): as the sequence (Q8N6T7 whole entry R65A) above, with A65R counted along it
Description: HEK293T cells were cultured in Dulbecco's Modified Eagle Medium supplemented with 10% fetal bovine serum. Cells were treated with 10 μM SAHA for 24 hours prior to harvest. Cells were trypsinized and pelleted prior to washing twice with ice-cold PBS. Cells were then resuspended in 800 μL ice-cold 10 mM HEPES pH 7.4, 10 mM KCl, 0.05% NP-40, and histone deacetylase and protease inhibitors (1 mM sodium butyrate, 4 μM trichostatin A, 100 μM phenylmethylsulfonyl fluoride, 10 μg/mL leupeptin, and 10 μg/mL aprotinin) for 20 minutes. After a 1,000×g 10 minute spin at 4° C. the pelleted nuclei were resuspended in 0.2 M HCl and incubated on ice for 20 minutes. Following 10 minute spin at 21,000×g at 4° C. the acid extracted supernatant was neutralized with 1 M Tris-HCl pH 8 prior to BCA protein concentration measurement. Histone deacetylation assays were ran with 75 μg/mL extracted histones, 1 μM SIRT6, 50 μM CL5, CL5D or 5% DMSO control, 0.5 mM NAD^+, in 20 mM potassium phosphate pH 7.5. Reactions ran at 37° C. prior to quench with SDS loading dye and 5 minute boil. 540 ng of nuclei acid extract following sirtuin reaction were loaded for 15% SDS-PAGE followed by transfer to nitrocellulose. Membrane was blocked with 1% milk before blotted with anti-H3K9ac (Active Motiff 39917) 1:3000 and imaged. […] Bands were quantified using Image Studio Lite (LiCor). […]

SIRT6 [2] = target: T1, SIRT6; experiment: Burst kinetic analysis of SIRT6 deacetylation; details: SIRT6 10 μM, 400 μM H3K9ac peptide, 500 μM NAD+
Description: SIRT6 (10 μM) was mixed with either H3K9ac peptide (400 μM) or NAD^+ (500 μM) in 20 mM potassium phosphate pH 7.5 and preheated to 37° C. for 3 minutes. Reactions were initiated either through the addition of NAD^+ (500 μM final) or H3K9ac peptide (400 μM final) and quenched after 10-1800 seconds by the addition of 3% TFA final. For each experiment, a control reaction in which H3K9ac peptide was excluded was collected at each timepoint and subtracted from corresponding experimental reactions to control for NAD^+ degradation. Nicotinamide and deacetylated peptide product were quantified by reverse-phase HPLC as described in the rapid quench flow kinetics methods section.
To further dissect the catalytic step(s) in kcat/Km,H3K9ac that are enhanced in the presence of activator, reaction conditions were set up to identify the existence of product ‘bursts’ during the first catalytic turnover. High concentrations of SIRT6 (10 μM) in the presence of 400 μM H3K9ac peptide were rapidly mixed with 500 μM NAD^+, and after an acid quench at different times, the products nicotinamide and deacetylated peptide were resolved and quantified by HPLC. […] The order of substrate mixing had no effect on the product curves.

SIRT6 K81A = SIRT6 K81A (Homo sapiens, UniProt Q8N6T7, K81A); experiment: Steady-state deacetylation rate of SIRT6 K81A with or without CL5D; details: SIRT6 K81A 1 μM, H3K9ac 40 μM, CL5D 50 μM, 25 minutes
Sequence of SIRT6 K81A (Q8N6T7 whole entry K81A): as the sequence (Q8N6T7 whole entry R65A) above, with A65R, K81A counted along it
Description: as §1

SIRT6 WT = SIRT6 WT (Homo sapiens, UniProt Q8N6T7); experiment: Steady-state deacetylation rate of SIRT6 WT with or without CL5D; details: SIRT6 WT 1 μM, H3K9ac 40 μM, CL5D 50 μM, 25 minutes
Sequence of SIRT6 WT (Q8N6T7 whole entry): as the sequence (Q8N6T7 whole entry R65A) above, with A65R counted along it
Description: as §1

Sequence of SIRT6 K160A (Q8N6T7 whole entry K160A): as the sequence (Q8N6T7 whole entry R65A) above, with A65R, K160A counted along it

## O=C(O)c1ccc2c(c1)C(=O)N(c1ccc(N(C(=O)c3c(Cl)cc(Cl)cc3Cl)C(=O)c3c(Cl)cc(Cl)cc3Cl)c(Cl)c1)C2=O [CL-5D, 2-(3-chloro-4-(2,4,6-trichloro-N-(2,4,6-trichlorobenzoyl)benzamido)phenyl)-1,3-dioxoisoindoline-5-carboxylic acid]
SIRT6 K160A
  RateCL5D: 0.126 ± 0.006 µM/min
SIRT6 R65A
  activation of SIRT6 R65A (in words): cannot be activated
SIRT6 R65A; SIRT6 R65A 1 μM, H3K9ac 40 μM, 25 minutes
  RateCL5D: 0.014 ± 0.004 µM/min
SIRT6 [1]
  SIRT6 deacetylation at H3K9 of whole histone substrate (in words): stimulated
SIRT6 [2]
  rate enhancement in the presence of CL5D: 1.8 fold
SIRT6 K81A
  RateCL5D: 0.125 ± 0.003 µM/min
SIRT6 WT
  RateCL5D: 0.164 ± 0.008 µM/min
